Experimental findings from ChEMBL document CHEMBL1132532, “Correlation of anti-HIV activity with structure: use of electrostatic potential and conformational analysis” (Bioorg Med Chem Lett, 1999) are described below.

Common to all, as to assay type: functional, cell-based
What all share (details): Homo sapiens

The subject of one test is ATH-8 cell line. In words: The compound was tested for anti HIV-activity (active) against ATH8 cell line.
The next test has as its system PBMC. In words: The compound was tested for anti HIV-activity (active) against PBM cell line.
A further test has as its system MT4. In words: The compound was tested for anti HIV-activity (active) against MT-4 cell line.
In another test the test system is MT2. As to the kind of experiment: The compound was tested for anti HIV-activity (active) against MT-2 cell line.

Broadly, the IC50 is the concentration needed to halve the response being measured. Lower therefore signals higher potency.

Consider `Cc1cn([C@H]2C[C@H](N=[N+]=[N-])[C@@H](CO)O2)c(=O)[nH]c1=O` [ZIDOVUDINE], for which the values for the 50% inhibitory concentration (IC50) in the test on ATH-8 cell line and in the test with PBMC were 0.4 µM and 0.004 µM, respectively.
In the case of `Cc1cn(C2COC(CO)C2)c(=O)[nH]c1=O` (stereo not drawn), in the test with MT4, the half-inhibitory concentration (IC50) was more than 200 µM.
Consider `Nc1ncnc2c1ncn2[C@H]1CO[C@@H](CO)C1`, for which the IC50 in the test with ATH-8 cell line was 15 µM; with MT4, 43 µM.
Turning to `Nc1ncnc2c1ncn2[C@@H]1CO[C@H](CO)C1`, in the test on PBMC, the concentration for half-maximal inhibition (IC50) is 0.67 µM.
For the compound `Nc1ccn(C2COC(CO)C2)c(=O)n1` (stereo not drawn), the IC50 with MT4 is more than 200 µM.
In turn, `Nc1ncnc2c1ncn2[C@@H]1C[C@H](CO)CO1` came in with an IC50 in the test with MT4 of more than 200 µM.
`Nc1nc(O)c2ncn(C3C=CC(CO)O3)c2n1` (stereo not drawn): the concentration for half-maximal inhibition (IC50) with ATH-8 cell line and with MT2 was 0.19 µM throughout.
Take `Nc1ncnc2c1ncn2[C@H]1C[C@@H](CO)CO1`: the IC50 in the test on MT4 is more than 200 µM.
Regarding `Nc1ncnc2c1ncn2[C@@H]1O[C@H](CO)[C@H]1CO`, the IC50 in the test on MT4 was determined as 4 µM.
In the test on MT4, `Nc1nc(O)c2ncn(C3COC(CO)C3)c2n1` (stereo not drawn) gave an IC50 of more than 200 µM.
